Laboratory results from US7034049B1, “3(5)-amino-pyrazole derivatives, process for their preparation and their use as antitumor agents” (Pharmacia Italia S.p.A., priority 1999, dated 2006).

SMILES	melting point [°C]
O=C(Nc1cc(C2CC2)n[nH]1)c1cc2ccccc2s1 [Compound 91, N-(3-cyclopropyl-1H-pyrazol-5-yl)-1-benzothiophene-2-carboxamide]	238 to 239
O=C(Nc1cc(C2CC2)n[nH]1)c1cc2ccccc2[nH]1 [Compound 102, N-(3-cyclopropyl-1H-pyrazol-5-yl)-1H-indole-2-carboxamide]	268 to 269
O=C(Nc1cc(C2CC2)n[nH]1)c1ccc[nH]1 [Compound 248, N-(3-cyclopropyl-1H-pyrazol-5-yl)-1H-pyrrole-2-carboxamide]	220 to 221
O=C(CCc1ccccc1)Nc1cc(C2CC2)n[nH]1 [Compound 93, N-(3-cyclopropyl-1H-pyrazol-5-yl)-3-phenylpropanamide]	152 to 160
CC(=O)Nc1cc(C2CC2)n[nH]1 [Compound 88, N-(3-cyclopropyl-1H-pyrazol-5-yl)acetamide]	167 to 171
COC(=O)c1ccc(C(=O)Nc2cc(C3CC3)n[nH]2)cc1 [Compound 94, Methyl 4-{[(3-cyclopropyl-1H-pyrazol-5-yl)amino]carbonyl}benzoate]	173 to 174
